According to patent US9682994B2, “Inhibitors of retroviral replication” (The Scripps Research Institute, priority 2011, dated 2017):

Assays:
HIV-1 pNL4-3 = assay: Viral mRNA expression after acute infection of HeLa-CD4 cells (RT-qPCR); type: cell-based
Source text: FIG. 1E: Analysis of viral mRNA expression. […] First-strand cDNA was synthesized with random primers and target DNA was quantified by qPCR using primers recognizing the env and LTR regions. Results were normalized as copies of viral mRNA per copy of GAPDH mRNA. […] RNA samples not reverse transcribed were used as negative control. Error bars represent standard deviations.
Total RNA extracted four days after acute infection with pNL4-3 (MOI>>1) in the presence of drugs. First-strand cDNA was synthesized with random primers, and quantified by qPCR using primers recognizing the env and LTR regions. Results were normalized as copies of viral mRNA per copy of GAPDH mRNA. The arbitrary value of 1 was assigned to the DMSO control. RNA samples that were not reverse transcribed were used as negative control. Error bars represent standard deviation.
First-strand cDNA from RNA for qPCR was prepared using […]™ first-strand cDNA kit (Invitrogen), following the manufacturer's instructions, using approximately 5 μg of RNA as starting material and random hexamers as first-strand primers. Quantitative PCR was performed with an aliquot of cDNA as template, using […]® 480 SYBR Green I Master (Roche) in a 20 μL reaction according to the manufacturer's instructions. […] The primers used were as follows: […]
PIs show low efficacy in this short 48 h assay as they act only upon spreading from the initial infection. […] The results were similar when viral production was determined by RT-PCR of viral RNA in HeLa-CD4 cells infected and treated for four days with one compound from each class of inhibitors (FIG. 5E).

Tat = assay: Biotinylated compound streptavidin-bead pull-down of Tat; type: binding, HIV-1; conditions: flag-tagged Tat expressed in cells or recombinant Tat
Description: HEK293T cells were transfected with flag-tagged Tat 101 a.a. (Tat-F-101-wt), a shorter Tat version with 86 a.a. (Tat-F-86-wt), Tat 86 a.a. mutated in the basic domain (Tat-F-BRM), flag-tagged CDK11 (CDK11-F), flag-tagged 9G8 (9G8-F) and empty vector control.
Recombinant Tat protein was incubated with Bio-dCA streptavidin-coated beads in the presence or absence of an excess of non-biotinylated dCA (represented as molar equivalent [eq.] of Bio-dCA). Raltegravir and recombinant GST-9G8 were used as a negative control competitor or as negative protein-binding control, respectively.
DYNABEADS® MYONE™ Streptavidin T1 (12.5 μl slurry) (Invitrogen) were pre-saturated with 1.88 μl of 1 mM in DMSO of Biotin alone or Bio-dCA and incubated for 1 h at room temperature with orbital rocking, plus an additional 30 min with Biotin (0.63 μl of 1 mM in DMSO). Protein extracts (250 μg per sample) were incubated with the pre-saturated beads in lysis buffer supplemented with 0.1% BSA for 1 h at 4° C. with orbital rocking. After incubation, the beads were washed three times with lysis buffer.
For the pull-down of recombinant Tat (#2222 of NIH) and GST-9G8, streptavidin-agarose beads (40 μl slurry) were pre-saturated with 1.5 μl of 1 mM in DMSO, Biotin alone, or Bio-dCA and incubated for 1 h at room temperature. […] After incubation, the beads were washed three times with PBS and proteins were eluted as before.

HIV-1 promoter = assay: Elongation from HIV-1 promoter by qRT-PCR in chronically infected HeLa cells; type: cell-based; conditions: dose-dependent
Source text: FIG. 3B: HIV-1 elongation from HIV-1 promoter measured by qPCR. […] All messages were normalized relative to GAPDH mRNA. The 100% value was arbitrarily assigned to the amounts of viral mRNA generated in the absence of compound, measured at 100 bp from start site. Right panel: Plotting of data obtained in left panel, setting each data point obtained with the 100 bp primer set at 100% and comparing to results obtained with 5.3 kb primer set.
For these studies, the amounts of viral RNA present at different distances from the promoter were measured using sets of oligonucleotide primer pairs specific to quantify transcripts made up to 100 bp, 5.3 kb or 8.5 kb from the transcription start site (FIG. 3A). It was observed that even in the absence of drug, elongation from the HIV-1 viral promoter is not very efficient. In the presence of DMSO alone only 30% of 5.3 kb long transcripts and 6% of 8.5 kb long transcripts were produced (FIG. 3B—left panel).

HIV-1 pNL43 = assay: HIV-1 replication in PHA/IL-2 stimulated human PBMCs, p24 ELISA; type: cell-based
Description: Freshly isolated uninfected human PBMCs were stimulated with PHA for two days, washed, and grown from then on in IL-2 alone. […] Antigen p24 was measured 5 days post infection using a sandwich ELISA kit.
To isolate PBMCs, 24 ml of total blood diluted two fold in RPMI or PBS were carefully layered over 12 ml of Ficoll-paque and centrifuged at 2000 rpm for 20 min (brakes off). Resultant layers are approximately from top to bottom: plasma-platelets-PBMC-Ficoll-red blood cells (with granulocytes). Most of the plasma was pipetted off and discarded. The buffy coat with PBMC's was carefully removed from 3 large (50 ml) tubes and transferred to a new 50 ml tube. The remaining Ficoll and red blood cells were discarded in closed tubes. Enough PBS was added to the PBMCs to make up 50 ml and centrifuged at 1200 rpm for 10 min, brakes on. The supernatant was decanted and the pellet was loosened and washed twice with PBS. Washed pellet was recovered in 30 ml of RPMI 1640 supplemented with 10% serum, 1% Penicillin-streptomycin and mixed well. PBMCs were counted and plated at 1×10^6 cells/ml. To activate the PBMCs, PHA (phytohaemagglutinin) was added at 3 μg/ml. Two to three days later add Interleukin 2 (IL2) at 3×10^−3 μg/ml.
PHA activated PBMCs were centrifuged and recovered at 6×10^6 cells in 3 ml complete RPMI. Then 3 ml of viral supernatant was added and incubated for 4 h at 37° C. After this period, cells were centrifuged, washed 3 times with PBS and recovered in 3 ml complete RPMI. PBMCs were plated at 0.5 ml per well in a 6-well plate, and 0.5 ml media with DMSO control or anti-viral control at 2× final concentration was added. IL-2 was added at 3×10^−3 μg/ml. Supernatant was recovered for p24 assay every 3-4 days post infection. Cells were split at 1×10^6 cell per ml every 5-7 days.
HIV-1 transcription is intimately linked to T-cell activation due to shared motifs between the HIV-LTR and the regulatory regions in induced genes, namely NF-κB. A large variety of T cell stimuli activate NF-κB, including PHA, IL-2 and tumor necrosis factor alpha (TNF-α).

Compound: CN(C)[C@H]1C[C@@]23CC[C@@]4(O2)C(=CC[C@]2(C)C(c5ccc6ccncc6c5)=CC[C@H]24)C=C3[C@@H](O)[C@@H]1O [dCA, didehydro-Cortistatin A]
- maximum inhibition, viral RNA (HIV-1 pNL4-3; HeLa-CD4 infected and treated for four days): around 80%
- EC50 (HIV-1 pNL4-3; HeLa-CD4 infected and treated for four days, read-out: EC50, viral production by RT-PCR of viral RNA): < 0.1 nM
- total amount of viral RNA in infected cells (HIV-1 pNL4-3; acute infection, increasing concentrations): drastic dose-dependent reduction
- interaction with Tat (pull-down) (Tat): interacted directly
- production of longer viral RNA species (elongation) (HIV-1 promoter): further decreased the production of longer viral RNA species
- maximum inhibition plateau in PBMCs (HIV-1 pNL43): 86%
- EC50 (HIV-1 pNL43; p24 ELISA, 5 days post infection, read-out: EC50, HIV-1 replication in primary cells (PBMCs)): < 1 nM
